Key:
[1] = tested on: Pseudomonas syringae pv. tomato; assay: in vivo preventive test on Pseudomonas syringae pv. tomato (tomatoes); conditions: sprayed one week before inoculation, evaluated 1 week after inoculation
Method: When the percentage of inhibition observed for the combination is greater than E, there is a synergistic effect. • Solvent: deionized water • tested compounds: […] To test for preventive activity, young plants are sprayed with the prepared compounds at three different rates of application. One week after application, the plants are inoculated with an aqueous suspension of Pseudomonas syringae pv. tomato. Inoculated plants are placed in a greenhouse chamber at 25° C. at a relative atmospheric humidity of 90%.

Streptomyces scabies = assay: in vivo preventive (seed growth test) test on Streptomyces scabies (potato), scab efficacy at harvest; conditions: T2: dose 12/100 kg seed, ST, natural field conditions
Method: (§1) • Solvent: water • Tested compounds: Isotianil (FS200 formulation) at 30/24/12 ml/100 KG Potato Seed • Penflufen (Emesto FS240 formulation) at 10 ml/100 KG Potato Seed • Serenade ASO (Bacillus subtilis QST 713 strain/SC/1.34%) 5 Litres/ha (200 ml/area sown under 100 KG Seed)
(§2) To test for seed (tuber) treatment activity mixtures of Isotianil FS200 and Serenade ASO SC in combination with an optional further fungicide, ie Potato tubers are selected having reasonable Streptomyces scabies infestation. Seed was treated by spray on the tubers with hand knapsack sprayer using total volume of slurry 1500 ml/100 Kg Seed. Seed treatment was done with Isotianil FS 200 alone and in tank-mix with Penflufen.
(§3) Serenade ASO SC 1.34% @ 5000 ml/ha of formulated product was sprayed in the furrows just before the sowing of seeds. 100 KG seeds are sown on an area of 400 m^2 and Serenade ASO @ 200 ml formulated product was used in this test. Seed treated with Isotianil and optional Penflufen as method described above was used in combination with soil application of Serenade ASO in furrows before sowing. This study was conducted in natural field conditions chamber and observations for Streptomyces scabies infestation on potato was taken at the time of harvest.
(§4) The test is evaluated at harvest of potato crop.

Potato = assay: potato field seed/soil treatment test: plant and stem number, tuber weight, tuber grading; conditions: T2: dose 12/100 kg seed, ST
Method: as §1, §2, §3, §4

N#Cc1ccccc1NC(=O)c1snc(Cl)c1Cl [(A.2) Isotianil, isotianil]
Efficacy in % found ([1]; application rate 50 g a.i.): 6% | Efficacy in % found ([1]; application rate 100 g a.i.): 0% | Efficacy in % found ([1]; application rate 200 g a.i.): 0% | % age Efficacy Scab (Streptomyces scabies): 68% | % age Grading Large (Potato; potato tubers at harvest): 34% | % age Grading Small (Potato; potato tubers at harvest): 29% | % age Grading medium (Potato; potato tubers at harvest): 37% | % age increase/dicrease over conrol, No. of Plants/5 meter (Potato; potato, field): 3% | % age increase/dicrease over conrol, No. of stems/meter (Potato; potato, field): 7% | % age increase/dicrease over conrol, Weight of tuber/5 meter (Potato; potato, field): 11%

— US10258040B2, “Use of combinations comprising host defense inducers and biological control agents for controlling bacterial harmful organisms in useful plants” (Bayer CropScience Aktiengesellschaft, priority 2013, dated 2019)
